Experimental findings from patent US20220089568A1 (Janssen Biotech, Inc., priority 2019, published 2022) are described below.

A value given as a limit tells only on which side of the number the result lay.

A word on the EC50: it is the concentration at which the effect is half-maximal.

One test has as its system MOLM-13 cells. Nature of the test: MOLM-13 Cellular Assay. Type of test: cell-based. Particulars: Homo sapiens, 72 hours exposure, cell viability by CellTiter-Glo. The method, then:
The day prior to assay set-up, cells were pelleted, resuspended in fresh media, counted, and cells were plated at 0.4×10^6 cell/mL in a T150 flask. […] Cells were exposed to different concentrations of test compounds at 37° C., 5% CO2 for 72 hours immediately after seeding.
(In general: Cellular ATP, detected with luciferase, serves as a proxy for viable cell number.)

In another test the target is T1, human DHODH (Homo sapiens, UniProt Q02127).
T1 construct: purchased Proteros PR-0044
T1 sequence (Q02127 whole entry): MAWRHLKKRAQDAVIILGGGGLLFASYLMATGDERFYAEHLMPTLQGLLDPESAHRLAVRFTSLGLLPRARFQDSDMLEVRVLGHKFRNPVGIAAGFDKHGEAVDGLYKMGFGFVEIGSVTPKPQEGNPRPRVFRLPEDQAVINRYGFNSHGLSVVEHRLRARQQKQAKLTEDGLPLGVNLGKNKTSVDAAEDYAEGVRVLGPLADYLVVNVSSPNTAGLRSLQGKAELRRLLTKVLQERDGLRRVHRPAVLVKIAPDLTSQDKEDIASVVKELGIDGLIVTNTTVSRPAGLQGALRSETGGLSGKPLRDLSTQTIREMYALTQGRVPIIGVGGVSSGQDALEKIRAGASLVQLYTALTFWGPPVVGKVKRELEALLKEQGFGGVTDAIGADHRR
Description: DHODH Enzymatic Assay. In kind it is biochemical. The settings on record: purified human DHODH; DCIP absorbance, end-point mode. The procedure, abridged: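 Purified human DHODH activity read as absorbance of DCIP, the terminal electron acceptor, in […] pH 7.5, 150 mM NaCl, 0.5 mM EDTA, 0.1% Triton X-100. Reaction started with a substrate mix of 20 mM DHO, 5 mM CoQ6 and 1 mM DCIP in assay buffer.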

With `CCn1c(CO)nn(-c2nc(O[C@@H](C)C(F)(F)F)c(C(=O)Nc3c(OC)cccc3OC)cc2F)c1=O` [Example 119, N-(2,6-Dimethoxyphenyl)-6-[4-ethyl-3-(hydroxymethyl)-5-oxo-1,2,4-triazol-1-yl]-5-fluoro-2-[(1S)-2,2,2-trifluoro-1-methyl-ethoxy]pyridine-3-carboxamide], the values for the EC50 in the test on MOLM-13 cells and at human DHODH were 1.48 nM and 2.25 nM, respectively.
As for `CCn1c(CO)nn(-c2nc(O[C@@H](C)C(F)(F)F)c(C(=O)Nc3ccncc3Cl)cc2F)c1=O` [Example 10, (S)-N-(3-Chloropyridin-4-yl)-6-(4-ethyl-3-(hydroxymethyl)-5-oxo-4,5-dihydro-1H-1,2,4-triazol-1-yl)-5-fluoro-2-((1,1,1-trifluoropropan-2-yl)oxy)nicotinamide], the values for the EC50 in the test with MOLM-13 cells and at human DHODH were 60.9 nM and 22.9 nM, respectively.
Taken in the same sequence, the figures for `CCn1c(CO)nn(-c2nc(O[C@@H](C)C(F)(F)F)c(C(=O)Nc3ncc(OC)cc3Cl)cc2F)c1=O` [Example 118, N-(3-Chloro-5-methoxy-2-pyridyl)-6-[4-ethyl-3-(hydroxymethyl)-5-oxo-1,2,4-triazol-1-yl]-5-fluoro-2-[(1S)-2,2,2-trifluoro-1-methyl-ethoxy]pyridine-3-carboxamide] were 6.38 nM and 4.64 nM.
Taken in the same sequence, the figures for `CCn1c(CO)nn(-c2nc(O[C@@H](C)C(F)(F)F)c(C(=O)Nc3cc(C)ccc3Cl)cc2F)c1=O` [Example 48, (S)-N-(2-Chloro-5-methylphenyl)-6-(4-ethyl-3-(hydroxymethyl)-5-oxo-4,5-dihydro-1H-1,2,4-triazol-1-yl)-5-fluoro-2-((1,1,1-trifluoropropan-2-yl)oxy)nicotinamide] were 0.553 nM and 0.761 nM.
On to `CCn1c(CO)nn(-c2nc(O[C@@H](C)C(F)(F)F)c(C(=O)Nc3cc(OC)ncc3C)cc2F)c1=O` [Example 66, (S)-6-(4-ethyl-3-(hydroxymethyl)-5-oxo-4,5-dihydro-1H-1,2,4-triazol-1-yl)-5-fluoro-N-(2-methoxy-5-methylpyridin-4-yl)-2-((1,1,1-trifluoropropan-2-yl)oxy)nicotinamide], for which the EC50 in the test with MOLM-13 cells was 19.9 nM; on human DHODH, 9.9 nM.
Taken in the same sequence, the figures for `CCn1c(CO)nn(-c2nc(O[C@@H](C)C(F)(F)F)c(C(=O)Nc3snc(C)c3Cl)cc2F)c1=O` [Example 26, (S)-N-(4-Chloro-3-methylisothiazol-5-yl)-6-(4-ethyl-3-(hydroxymethyl)-5-oxo-4,5-dihydro-1H-1,2,4-triazol-1-yl)-5-fluoro-2-((1,1,1-trifluoropropan-2-yl)oxy)nicotinamide] were greater than 100 nM and 108 nM.
In the case of `Cc1ccnc(Cl)c1NC(=O)c1cc(F)c(-n2nc(CF)n(CCCO)c2=O)nc1O[C@@H](C)C(F)(F)F` [Example 101, N-(2-Chloro-4-methyl-3-pyridyl)-5-fluoro-6-[3-(fluoromethyl)-4-(3-hydroxypropyl)-5-oxo-1,2,4-triazol-1-yl]-2-[(1S)-2,2,2-trifluoro-1-methyl-ethoxy]pyridine-3-carboxamide], the EC50 in the test with MOLM-13 cells worked out at 19.4 nM; on human DHODH, 39.4 nM.
With `CCn1c(CO)nn(-c2nc(O[C@@H](C)C(F)(F)F)c(C(=O)Nc3c(C)ccnc3C)cc2F)c1=O` [Example 18, (S)-N-(2,4-Dimethylpyridin-3-yl)-6-(4-ethyl-3-(hydroxymethyl)-5-oxo-4,5-dihydro-1H-1,2,4-triazol-1-yl)-5-fluoro-2-((1,1,1-trifluoropropan-2-yl)oxy)nicotinamide], the EC50 was 12.8 nM with MOLM-13 cells and 3.7 nM on human DHODH.
For `CCn1c(CO)nn(-c2nc(O[C@@H](C)C(F)(F)F)c(C(=O)Nc3ccnnc3OC)cc2F)c1=O` [Example 109, 6-[4-Ethyl-3-(hydroxymethyl)-5-oxo-1,2,4-triazol-1-yl]-5-fluoro-N-(3-methoxypyridazin-4-yl)-2-[(1S)-2,2,2-trifluoro-1-methyl-ethoxy]pyridine-3-carboxamide], in that order: greater than 100 nM and greater than 100 nM.
For `CCn1c(CO)nn(-c2nc(O[C@@H](C)C(F)(F)F)c(C(=O)Nc3cc[nH]c(=O)c3Cl)cc2F)c1=O` [Example 20, (S)-N-(3-Chloro-2-oxo-1,2-dihydropyridin-4-yl)-6-(4-ethyl-3-(hydroxymethyl)-5-oxo-4,5-dihydro-1H-1,2,4-triazol-1-yl)-5-fluoro-2-((1,1,1-trifluoropropan-2-yl)oxy)nicotinamide], in that order: 108 nM and 4.3 nM.
For `Cc1ccnc(Cl)c1NC(=O)c1cc(F)c(-n2nc(CF)n(C(C)C)c2=O)nc1O[C@@H](C)C(F)(F)F` [Example 86, (S)-2-(5-(((2-Chloro-4-methylpyridin-3-yl)-l2-azaneyl)carbonyl)-3-fluoro-6-((1,1,1-trifluoropropan-2-yl)oxy)pyridin-2-yl)-5-(fluoromethyl)-4-isopropyl-2,4-dihydro-3H-1,2,4-triazol-3-one], in that order: 1.8 nM and 3.9 nM.
Take `CCn1c(CO)nn(-c2nc(OC3CC(F)(F)C3(F)F)c(C(=O)Nc3c(F)cccc3Cl)cc2F)c1=O` (racemic) [Example 8, Racemic-N-(2-Chloro-6-fluorophenyl)-6-(4-ethyl-3-(hydroxymethyl)-5-oxo-4,5-dihydro-1H-1,2,4-triazol-1-yl)-5-fluoro-2-(2,2,3,3-tetrafluorocyclobutoxy)nicotinamide]: the results for the EC50 in the test with MOLM-13 cells and on human DHODH were 15.7 nM and 22.1 nM, respectively.
Regarding `CCn1c(CO)nn(-c2nc(O[C@@H](C)C(F)(F)F)c(C(=O)Nc3cc(Cl)cnc3C)cc2F)c1=O` [Example 52], the EC50 came to 68.9 nM in the test on MOLM-13 cells and 13 nM at human DHODH.
For `CCn1c(CO)nn(-c2nc(O[C@@H](C)C(F)(F)F)c(C(=O)Nc3c(F)cncc3Cl)cc2F)c1=O` [Example 28, (S)-N-(3-Chloro-5-fluoropyridin-4-yl)-6-(4-ethyl-3-(hydroxymethyl)-5-oxo-4,5-dihydro-1H-1,2,4-triazol-1-yl)-5-fluoro-2-((1,1,1-trifluoropropan-2-yl)oxy)nicotinamide], in that order: 4.7 nM and 2.3 nM.
With `CCn1c(COC)nn(-c2nc(O[C@@H](C)C(F)(F)F)c(C(=O)Nc3c(F)cccc3Cl)cc2F)c1=O` [Example 14, (S)-N-(2-Chloro-6-fluorophenyl)-6-(4-ethyl-3-(methoxymethyl)-5-oxo-4,5-dihydro-1H-1,2,4-triazol-1-yl)-5-fluoro-2-((1,1,1-trifluoropropan-2-yl)oxy)nicotinamide], the EC50 was 0.2 nM with MOLM-13 cells and less than 1.69 nM at human DHODH.
For `CCCn1c(CO)nn(-c2nc(O[C@@H](C)C(F)(F)F)c(C(=O)Nc3c(C)ccnc3Cl)cc2F)c1=O` [Example 84, N-(2-Chloro-4-methyl-3-pyridyl)-5-fluoro-6-[3-(hydroxymethyl)-5-oxo-4-propyl-1,2,4-triazol-1-yl]-2-[(1S)-2,2,2-trifluoro-1-methyl-ethoxy]pyridine-3-carboxamide], in that order: 4.8 nM and 5.1 nM.
As for `Cc1ccnc(Cl)c1NC(=O)c1cc(F)c(-n2nc(CO)n(C(C)C)c2=O)nc1O[C@@H](C)C(F)(F)F` [Example 89, N-(2-Chloro-4-methyl-3-pyridyl)-5-fluoro-6-[3-(hydroxymethyl)-4-isopropyl-5-oxo-1,2,4-triazol-1-yl]-2-[(1S)-2,2,2-trifluoro-1-methyl-ethoxy]pyridine-3-carboxamide], the EC50 in the test on MOLM-13 cells worked out at 4.09 nM; at human DHODH, 10.7 nM.
Taken in the same sequence, the figures for `CCn1c(CO)nn(-c2nc(O[C@@H](C)C(F)(F)F)c(C(=O)Nc3c(C)n[nH]c3C(F)(F)F)cc2F)c1=O` [Example 111, 6-[4-Ethyl-3-(hydroxymethyl)-5-oxo-1,2,4-triazol-1-yl]-5-fluoro-N-[3-methyl-5-(trifluoromethyl)-1H-pyrazol-4-yl]-2-[(1S)-2,2,2-trifluoro-1-methyl-ethoxy]pyridine-3-carboxamide] were 0.345 nM and 1.93 nM.
For `CCn1c(CO)nn(-c2nc(O[C@@H](C)C(F)(F)F)c(C(=O)Nc3cn(C)nc3COC)cc2F)c1=O` [Example 61, (S)-6-(4-Ethyl-3-(hydroxymethyl)-5-oxo-4,5-dihydro-1H-1,2,4-triazol-1-yl)-5-fluoro-N-(3-(methoxymethyl)-1-methyl-1H-pyrazol-4-yl)-2-((1,1,1-trifluoropropan-2-yl)oxy)nicotinamide], in that order: greater than 100 nM and 365 nM.
On to `CCn1c(CO)nn(-c2nc(O[C@@H](C)C(F)(F)F)c(C(=O)Nc3c(C)cc(OC)nc3Cl)cc2F)c1=O` [Example 106, N-(2-Chloro-6-methoxy-4-methyl-3-pyridyl)-6-[4-ethyl-3-(hydroxymethyl)-5-oxo-1,2,4-triazol-1-yl]-5-fluoro-2-[(1S)-2,2,2-trifluoro-1-methyl-ethoxy]pyridine-3-carboxamide], for which the results for the EC50 with MOLM-13 cells and at human DHODH were 0.792 nM and 2.9 nM, respectively.
On to `CCn1c(CO)nn(-c2nc(O[C@@H](C)C(F)(F)F)c(C(=O)Nc3nccnc3OC)cc2F)c1=O` [Example 34, (S)-6-(4-Ethyl-3-(hydroxymethyl)-5-oxo-4,5-dihydro-1H-1,2,4-triazol-1-yl)-5-fluoro-N-(3-methoxypyrazin-2-yl)-2-((1,1,1-trifluoropropan-2-yl)oxy)nicotinamide], for which the EC50 in the test on MOLM-13 cells was greater than 100 nM; on human DHODH it was 360 nM.
Taken in the same sequence, the figures for `CCn1c(CO)nn(-c2nc(OC3CCOC3)c(C(=O)Nc3c(F)cccc3Cl)cc2F)c1=O` (racemic) [Example 9, Racemic-N-(2-Chloro-6-fluorophenyl)-6-(4-ethyl-3-(hydroxymethyl)-5-oxo-4,5-dihydro-1H-1,2,4-triazol-1-yl)-5-fluoro-2-((tetrahydrofuran-3-yl)oxy)nicotinamide] were 18.5 nM and 31.8 nM.
